Source: patent US6503534B1, “Pharmaceutical compositions for prolonged peptide release and preparation method” (Societe de Conseils de Recherches et d'Applications …, priority 1998, dated 2003)

Assay: Measurement of the specific surface area (B.E.T method)
Assay type: physicochemical
Settings: lanreotide acetate recovered after flash freezing and lyophilization
Method: For all the following examples, the specific surface area of the peptide salt was determined by the so-called B.E.T method (absorption of a nitrogen monolayer on the active substance), a method well known to a person skilled in the art.

SMILES | Specific surface area obtained [m^2/g]
CC(C)[C@@H]1NC(=O)[C@H](CCCCN)NC(=O)[C@@H](Cc2c[nH]c3ccccc23)NC(=O)[C@H](Cc2ccc(O)cc2)NC(=O)[C@@H](NC(=O)[C@H](N)Cc2ccc3ccccc3c2)CSSC[C@@H](C(=O)N[C@H](C(N)=O)[C@@H](C)O)NC1=O [Example 3, lanreotide acetate] | 36
CC(C)[C@@H]1NC(=O)[C@H](CCCCN)NC(=O)[C@@H](Cc2c[nH]c3ccccc23)NC(=O)[C@H](Cc2ccc(O)cc2)NC(=O)[C@@H](NC(=O)[C@H](N)Cc2ccc3ccccc3c2)CSSC[C@@H](C(=O)N[C@H](C(N)=O)[C@@H](C)O)NC1=O [Example 4, lanreotide acetate] | 43
